Experiments:
Format in all cases: in vivo
[1] = test system: Mycosphaerella graminicola (Septoria tritici); test: Mycosphaerella graminicola (Septoria tritici) / wheat / preventative (Septoria tritici leaf spot on wheat); details: Zymoseptoria tritici, wheat plants cv. Riband, inoculated one day after application, vs untreated control, read-out: disease control
Description: Mycosphaerella graminicola (Septoria tritici)/Wheat/Preventative (Septoria tritici Leaf Spot on Wheat) 2-week old wheat plants cv. Riband are treated with the formulated test compound in a spray chamber. The test plants are inoculated by spraying a spore suspension on them one day after application. After an incubation period of 1 day at 22° C./21° C. (day/night) and 95% rh, the test plants are kept at 22° C./21° C. (day/night) and 70% rh in a greenhouse. The percentage leaf area covered by disease is assessed when an appropriate level of disease appears on untreated check plants (16-19 days after application).

[2] = test system: Mycosphaerella arachidis (Cercospora arachidicola); test: Mycosphaerella arachidis (Cercospora arachidicola) / peanut / preventative; details: peanut plants cv. Georgia Green, inoculated one day after application, vs untreated control, read-out: disease control
Description: Mycosphaerella arachidis (Cercospora arachidicola)/Peanut/Preventative 3-week old peanut plants cv. Georgia Green are treated with the formulated test compound in a spray chamber. The test plants are inoculated by spraying them with a spore suspension on their lower leaf surface one day after application. After an incubation period of 4 days under a plastic hood at 23° C. and 100% rh, the test plants are kept at 23° C./20° C. (day/night) and 70% rh in a greenhouse. The percentage leaf area covered by disease is assessed when an appropriate level of disease appears on untreated check plants (12-14 days after application).

[3] = test system: Erysiphe necator (Uncinula necator); test: Erysiphe necator (Uncinula necator) / grape / preventative (powdery mildew on grape); details: grape seedlings cv. Gutedel, inoculated 1 day after application, vs untreated control, read-out: disease control
Description: Erysiphe necator (Uncinula necator)/Grape/Preventative (Powdery Mildew on Grape) 5-week old grape seedlings cv. Gutedel are treated with the formulated test compound in a spray chamber. The test plants are inoculated by shaking plants infected with grape powdery mildew above them 1 day after application. The inoculated test plants are incubated at 24/22° C. (day/night) and 70% rh under a light regime of 14/10 h (light/dark) and the percentage leaf area covered by disease is assessed when an appropriate level of disease appears on untreated check plants (7-9 days after application).

[4] = test system: Botryotinia fuckeliana (Botrytis cinerea); test: Botryotinia fuckeliana (Botrytis cinerea) / tomato / preventative (Botrytis on tomato); details: tomato plants cv. Roter Gnom, inoculated two days after application, vs untreated control, read-out: disease control
Description: (§1) Botryotinia fuckeliana (Botrytis cinerea)/Tomato/Preventative (Botrytis on Tomato) 4-week old tomato plants cv. Roter Gnom are treated with the formulated test compound in a spray chamber. The test plants are inoculated by spraying them with a spore suspension two days after application. The inoculated test plants are incubated at 20° C. and 95% rh in a greenhouse and the percentage leaf area covered by disease is assessed when an appropriate level of disease appears on untreated check plants (5-6 days after application).

Alternaria solani = Alternaria solani / tomato / preventative (Alternaria on tomato); details: tomato plants cv. Roter Gnom, inoculated two days after application, vs untreated control, read-out: disease control
Description: as §1, with “Alternaria solani/Tomato/Preventative (Alternaria” for “Botryotinia fuckeliana (Botrytis cinerea)/Tomato/Preventative (Botrytis”, “22/18°” for “20°”, “C. (day/night)” for “C.”, “(5-7” for “(5-6”

Plasmopara viticola = Plasmopara viticola / grape / preventative (grape downy mildew); details: grape seedlings cv. Gutedel, inoculated one day after application, vs untreated control, read-out: disease control
Description: Plasmopara viticola/Grape/Preventative (Grape Downy Mildew)
5-week old grape seedlings cv. Gutedel are treated with the formulated test compound in a spray chamber. The test plants are inoculated by spraying a sporangia suspension on their lower leaf surface one day after application. The inoculated test plants are incubated at 22° C. and 100% rh in a greenhouse and the percentage leaf area covered by disease is assessed when an appropriate level of disease appears on untreated check plants (6-8 days after application).

[5] = test system: Pyrenophora teres (Helminthosporium teres); test: Pyrenophora teres (Helminthosporium teres) / barley / preventative (net blotch on barley); details: barley plants cv. Regina, inoculated 2 days after application, vs untreated control, read-out: disease control
Description: Pyrenophora teres (Helminthosporium teres)/Barley/Preventative (Net Blotch on Barley) 1-week old barley plants cv. Regina are treated with the formulated test compound in a spray chamber. The test plants are inoculated by spraying them with a spore suspension 2 days after application. The inoculated test plants are incubated at 20° C. and 95% rh and the percentage leaf area covered by disease is assessed when an appropriate level of disease appears on untreated check plants (5-7 days after application).

[6] = test system: Phaeosphaeria nodorum (Septoria nodorum); test: Phaeosphaeria nodorum (Septoria nodorum) / wheat / leaf disc preventative (glume blotch); details: Parastagonospora nodorum, foliar, wheat leaf segments cv. Kanzler on agar, inoculated 2 days after application, vs untreated control, read-out: disease control
Description: Phaeosphaeria nodorum (Septoria nodorum)/Wheat/Leaf Disc Preventative (Glume Blotch) Wheat leaf segments cv. Kanzler are placed on agar in a multiwell plate (24-well format) and sprayed with the formulated test compound diluted in water. The leaf disks are inoculated with a spore suspension of the fungus 2 days after application. The inoculated test leaf disks are incubated at 20° C. and 75% rh under a light regime of 12 h light/12 h darkness in a climate cabinet and the activity of a compound is assessed as percent disease control compared to untreated when an appropriate level of disease damage appears in untreated check leaf disks (5-7 days after application).

Measured: pest or weed control at 200 ppm

Cc1ccc(Cc2cccc(-c3ncc4ccccc4n3)n2)cc1 [6/10]
≥ 80%: [1]

Cc1cccc(-c2ncc3ccccc3n2)n1 [10/4]
≥ 80%: [2] | [3]

Cc1ccc(-c2ncc3ccccc3n2)nc1-c1ccc(F)cc1F [3/83]
≥ 80%: [4] | Alternaria solani | [1] | Plasmopara viticola | [5]

Cc1ccc(-c2ncc3ccccc3n2)nc1Cc1cccc(C)c1F [7/7]
≥ 80%: [3] | Alternaria solani | Plasmopara viticola | [5]

Cc1ccccc1Cc1cccc(-c2ncc3ccccc3n2)n1 [6/19]
≥ 80%: Alternaria solani | [1] | Plasmopara viticola | [5]

Cc1ccc(-c2nc(C)c3ccccc3n2)nc1-c1ccccc1 [11/8, 4-Methyl-2-(5-methyl-6-phenyl-pyridin-2-yl)-quinazoline]
not listed: [4] | [6]
≥ 80%: all other assays above

Cc1nc(-c2cccc(Cc3ccccc3)n2)nc2ccccc12 [12/6]
≥ 80%: [3] | Alternaria solani | [6]

Cc1ccc(F)cc1-c1nc(-c2ncc3ccccc3n2)ccc1C [3/26]
≥ 80%: [4] | [2] | Alternaria solani | Plasmopara viticola | [5]

Cc1ccc(-c2ncc3ccccc3n2)nc1-c1ccc(F)cc1O [3/101]
≥ 80%: [4] | Alternaria solani | [1] | Plasmopara viticola | [5]

c1ccc(-c2cccc(-c3ncc4ccccc4n3)n2)cc1 [2/1]
≥ 80%: [4] | [2]

COc1ccc(Cl)cc1-c1cccc(-c2ncc3ccccc3n2)n1 [2/68]
≥ 80%: [3] | Alternaria solani | Plasmopara viticola

Clc1ccccc1-c1cccc(-c2ncc3ccccc3n2)n1 [2/13]
≥ 80%: [4] | [2] | Alternaria solani | Plasmopara viticola

Cc1ccc(-c2nc(-c3ncc4ccccc4n3)ccc2C)cc1F [3/94]
≥ 80%: [4] | Alternaria solani | [1] | Plasmopara viticola | [5]

Clc1ccc(Cc2cccc(-c3ncc4ccccc4n3)n2)cc1 [6/18]
≥ 80%: Alternaria solani | [1] | [5]

Cc1cccc(Cc2cccc(-c3ncc4ccccc4n3)n2)c1F [6/12]
not listed: Plasmopara viticola | [6]
≥ 80%: all other assays above

c1cc(-c2ncc3ccccc3n2)nc(-c2cccc3ccccc23)c1 [2/6]
≥ 80%: [4] | [2] | Alternaria solani | Plasmopara viticola | [5]

Cc1ccc(-c2ncc3ccccc3n2)nc1-c1ccc(Cl)cc1 [3/74]
≥ 80%: Alternaria solani | [1] | Plasmopara viticola | [5]

Cc1ccc(-c2ncc3ccccc3n2)nc1Oc1ccc(F)cc1 [5/3]
≥ 80%: [2] | Plasmopara viticola | [5]

COc1cccc(Cc2cccc(-c3ncc4ccccc4n3)n2)c1 [6/15]
≥ 80%: [1] | Plasmopara viticola | [5]

CCc1ccccc1-c1cccc(-c2ncc3ccccc3n2)n1 [2/37]
≥ 80%: [4] | [2] | Alternaria solani | Plasmopara viticola

Cc1ccc(F)c(-c2nc(-c3ncc4ccccc4n3)ccc2C)c1 [3/9]
not listed: [3] | [6]
≥ 80%: all other assays above

c1cc(-c2ncc3ccccc3n2)nc(C2CC2)c1 [10/7]
≥ 80%: [4] | [2] | [3] | Plasmopara viticola

COc1ccc(-c2nc(-c3ncc4ccccc4n3)ccc2C)cc1C [3/93]
≥ 80%: Alternaria solani | [1] | Plasmopara viticola | [5]

Clc1ccccc1Cc1cccc(-c2ncc3ccccc3n2)n1 [6/16]
not listed: [2] | [6]
≥ 80%: all other assays above

Cc1ccc(C)c(-c2cccc(-c3ncc4ccccc4n3)n2)c1 [2/54]
≥ 80%: [2] | [3] | Alternaria solani | Plasmopara viticola | [5]

Cc1ccc(-c2ncc3ccccc3n2)nc1-c1cccc(F)c1F [3/38]
not listed: [1] | [6]
≥ 80%: all other assays above

Cc1ccc(-c2ncc3ccccc3n2)nc1-c1ccccc1F [3/82]
≥ 80%: Alternaria solani | [1] | Plasmopara viticola | [5]

COc1ccc(-c2nc(-c3ncc4ccccc4n3)ccc2C)c(C)c1 [3/53]
not listed: [1] | [6]
≥ 80%: all other assays above

Cc1ccc(-c2nc(-c3ncc4ccccc4n3)ccc2C)cc1Cl [3/21]
≥ 80%: [4] | [3] | Alternaria solani | Plasmopara viticola

Cc1ccc(-c2ncc3ccccc3n2)nc1C#CC1CC1 [8/1]
≥ 80%: [4] | [2] | Alternaria solani | Plasmopara viticola
